{
  "source": "paper PMC10439952",
  "about": "“JT002, a small molecule inhibitor of the NLRP3 inflammasome for the treatment of autoinflammatory disorders” (Scientific Reports, 2023)",
  "tested_on": "ozone exposed C57BL6/J mice",
  "assay": "Murine model of ozone induced neutrophilic airway inflammation",
  "assay_type": "in vivo, mouse",
  "description": "Four groups of 4 or 5 female C57BL6/J mice (The Jackson Laboratory, Bar Harbor, ME) at 8–12 weeks of age were housed under pathogen-free conditions and maintained on an ovalbumin-free diet. Mice were dosed orally with JT002 at 2.5 or 25 mg/kg once daily for 4 days. On the last day, 1-h post-dosing of test compound, mice were exposed to O3 at 1.0 ppm for 3 h in stainless steel wire cages set inside 240-L laminar flow inhalation chambers. O3 was generated by directing compressed medical-grade oxygen through an electrical discharge O3 generator (Sander Ozonizer, Model 25, Erwin Sander Elektroapparatebau GmbH, Uetze-Eltze, Germany) located upstream of the exposure chamber. Exposure to HEPA-filtered air was done in a separate chamber with age- and treatment-matched control animals.\nDetermination of airway hyperresponsiveness (AHR) AHR was assessed on Day 30 (iTreg model) or 3 h after the O3 exposure (ozone model) as a change in airway resistance (cm H2O/mL/s) after challenge with aerosolized methacholine with using a whole body plethysmograph-based system (National Jewish Medical and Research Center, Denver, CO). Methacholine aerosol was administered by nebulization in increasing concentrations (12.5–100 mg/mL) and RL was continuously computed by fitting flow, volume, and pressure to an equation of motion (Labview, National Instruments, Dallas, TX). Bronchoalveolar Lavage Immediately after assessment of AHR, lungs were lavaged via the tracheal tube with 1 mL of Hanks’ balanced salt solution (Gibco, Grand Island, NY). Total cell numbers were counted. Differential cell counts for neutrophils and macrophages were performed in a blinded fashion by counting at least 200 cells on cytocentrifuged preparations (Model Cytospin 3, Shandon Ltd, Runcorn, UK) stained with Leukostat (Fisher Diagnostics, Fair Lawn, NJ). Cell-free BAL fluid was stored at − 80 °C until measurements of cytokine levels by ELISA (eBioscience, San Diego, CA) were performed. Blood Collection Immediately following AHR measurement, mice were euthanized by exsanguination and blood collected for serum. Samples were stored at − 80 °C for subsequent measurement of immunoglobulin levels by ELISA. Lung Histology After BAL collection, lungs were inflated through the trachea with 1 mL of 10% formalin, removed and fixed in 10% formalin by immersion. Blocks of the lung tissue were cut around the main bronchus and embedded in paraffin blocks. Tissue sections (5 μm) were affixed to glass slides, and the slides were deparaffinized and stained with H&E for qualitative analysis of inflammatory cell influx and epithelial desquamation.",
  "key": {"[1]": {"conditions": "2.5 mg/kg orally once daily for 4 days"}, "[2]": {"conditions": "25 mg/kg orally once daily for 4 days"}},
  "data": [
    {"molecule": "CO[C@@H]1COc2c(S(=O)(=O)NC(=O)Nc3c4c(cc5c3CCC5)CCC4)cnn2C1", "note": "[JT002]", "values": [
      {"measurement": "AHR", "setting": "[1]", "value": "strong trend for reduction"},
      {"measurement": "BAL neutrophilia", "setting": "[1]", "value": "no effect"},
      {"measurement": "prevention of airway epithelial desquamation", "setting": "[1]", "value": "strong trend"},
      {"measurement": "BAL fluid neutrophil numbers", "setting": "[2]", "value": "significantly reduced"},
      {"measurement": "appearance of epithelial cells in the airway lumen", "setting": "[2]", "value": "visibly reduced"},
      {"measurement": "number of epithelial cells in the BAL fluid", "setting": "[2]", "value": "no effect"},
      {"measurement": "ozone-induced AHR", "setting": "[2]", "value": "prevented ozone-induced AHR"}
    ]}
  ]
}
